# Data as given in the supplement of paper PMC5579334.
# Tests used:
# S1507-2 [1] = test: relative IC50 (inflection point of fitted dose-response curve, CellTiter-Glo viability, 72 h; top asymptote may be below 50% inhibition); higher = less potent
# Procedure, shortened: (§1)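 After seeding 750–1000 cells per well of MPNST cell lines or primary human Schwann cells into 384-well plates preprinted with each compound at five concentrations in 10-fold steps, plates were kept 72 h at 37 °C, 5% CO2. Viability was read as CellTiter-Glo ATP luminescence relative to vehicle and positive-control wells, with duplicates averaged where present. The data were fitted with four-parameter logistic models. Drug sensitivity score and relative IC50, censored at the top concentration, derive from the fits, and percent inhibition refers to the top concentration.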
# HS-Sch-2 = test: as above
# Procedure, shortened: as §1
# STS26T [2] = test: as above
# Procedure, shortened: as §1
# ST8814 [3] = test: as above
# Procedure, shortened: as §1
# HSC1 [4] = test: as above
# Procedure, shortened: as §1
# HS-PSS [5] = test: as above
# Procedure, shortened: as §1
# YST-1 = test: as above
# Procedure, shortened: as §1
# S462 = test: as above
# Procedure, shortened: as §1
# HSC2 [6] = test: as above
# Procedure, shortened: as §1
# S1507-2 [7] = test: relative IC50 (inflection point of fitted dose-response curve, CellTox-Green cytotoxicity, 72 h; top asymptote may be below 50%); higher = less potent
# Procedure, shortened: (§2)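 For 72 h at 37 °C, MPNST cell lines and primary human Schwann cells were exposed in 384-well plates to five 10-fold compound dilutions. CellTox-Green, added before seeding at a final 1:1000 dilution, gave fluorescence from DNA released by disrupted cells. Signals were scaled to vehicle and positive-control wells, cultures failing plate quality control were left out, and four-parameter logistic fits were applied. Relative IC50 and drug sensitivity score were derived from the fits, with IC50 censored at the top concentration.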
# STS26T [8] = test: as above
# Procedure, shortened: as §2
# ST8814 [9] = test: as above
# Procedure, shortened: as §2
# HSC1 [10] = test: as above
# Procedure, shortened: as §2
# HS-PSS [11] = test: as above
# Procedure, shortened: as §2
# HSC2 [12] = test: as above
# Procedure, shortened: as §2
Compound,relative IC50 (S1507-2 [1]) [nM],relative IC50 (HS-Sch-2) [nM],relative IC50 (STS26T [2]) [nM],relative IC50 (ST8814 [3]) [nM],relative IC50 (HSC1 [4]) [nM],relative IC50 (HS-PSS [5]) [nM],relative IC50 (YST-1) [nM],relative IC50 (S462) [nM],relative IC50 (HSC2 [6]) [nM],relative IC50 (S1507-2 [7]) [nM],relative IC50 (STS26T [8]) [nM],relative IC50 (ST8814 [9]) [nM],relative IC50 (HSC1 [10]) [nM],relative IC50 (HS-PSS [11]) [nM],relative IC50 (HSC2 [12]) [nM]
CN[C@@H]1C[C@H]2O[C@@](C)([C@@H]1OC)n1c3ccccc3c3c4c(c5c6ccccc6n2c5c31)C(=O)N[C@H]4O [UCN-01],19.3,63.3,44.3,51.9,44.8,121,85.9,29.5,24.8,159,24.9,257,459,2130,158
CCCCC(=O)OCC(=O)[C@]1(O)Cc2c(O)c3c(c(O)c2[C@@H](O[C@H]2C[C@H](NC(=O)C(F)(F)F)[C@H](O)[C@H](C)O2)C1)C(=O)c1c(OC)cccc1C3=O [Valrubicin],534,264,306,285,238,422,97,233,258,> 5000,> 5000,> 5000,> 5000,> 5000,> 5000
CC[C@@H]1C(=O)N(C)c2cnc(Nc3ccc(C(=O)N[C@H]4CC[C@H](N5CCN(CC6CC6)CC5)CC4)cc3OC)nc2N1C(C)C [Volasertib],16.1,10.6,7.29,33.6,34.5,42.1,17.7,15.4,33.2,12.7,2.68,34.1,29.3,> 1000,25.2
O=C(CCCCCCC(=O)Nc1ccccc1)NO [Vorinostat],1680,1770,2250,1690,1310,2820,687,2090,1570,2660,2570,3150,3780,2450,3430
